The target of assay [1] is T1, G-protein coupled receptor 55 (Homo sapiens, UniProt Q9Y2T6). Kind of assay: Agonist activity at recombinant human GPR55 expressed in CHO cells assessed as increase in beta-arrestin recruitment incubated for 60 mins measured for 1 sec by luminescence assay. The format is functional, cell-based. For orientation: Activated receptors often draw arrestin, which recruitment assays turn into a signal.

Assay [2] concerns the target Cannabinoid receptor 1 (Homo sapiens, UniProt P21554). The assay is described as follows: Displacement of [3H]CP55940 from recombinant human CB1 receptor expressed in CHO cell membranes after 2 hrs by liquid scintillation counting method. As to conditions: for inhibition: concentration not given here. A general note: Displacement assays read how much labelled ligand stays bound in the presence of the test substance.

In assay [3] the target is T2, N-arachidonyl glycine receptor (Homo sapiens) (UniProt Q14330).
T2 sequence (whole entry): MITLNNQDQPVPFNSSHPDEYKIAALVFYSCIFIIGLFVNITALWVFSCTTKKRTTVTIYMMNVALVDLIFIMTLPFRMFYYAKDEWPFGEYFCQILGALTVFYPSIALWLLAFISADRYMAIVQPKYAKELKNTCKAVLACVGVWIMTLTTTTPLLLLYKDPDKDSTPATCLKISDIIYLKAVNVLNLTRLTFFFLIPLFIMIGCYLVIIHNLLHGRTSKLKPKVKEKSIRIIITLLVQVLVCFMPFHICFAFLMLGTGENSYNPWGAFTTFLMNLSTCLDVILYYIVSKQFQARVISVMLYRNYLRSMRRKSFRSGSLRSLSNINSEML
Kind of assay: (§1) Antagonist activity at recombinant human GPR18 expressed in CHO cells assessed as inhibition of delta9-THC-induced beta-arrestin recruitment preincubated for 60 mins followed by delta9-THC addition for 90 mins measured for 1 sec by luminescence assay. The format is functional, cell-based.

Assay [4] has as its target T3, N-arachidonyl glycine receptor (Homo sapiens, UniProt Q14330).
T3 sequence (Q14330 whole entry): T2 sequence (whole entry)
The assay is described as §1. In kind it is functional, cell-based.

For assay [5], the target named is T2, N-arachidonyl glycine receptor (Homo sapiens). Kind of assay: (§2) Agonist activity at recombinant human GPR18 expressed in CHO cells assessed as increase in beta-arrestin recruitment incubated for 60 mins measured for 1 sec by luminescence assay. In kind it is functional, cell-based.
Assay [6] deals with T3, N-arachidonyl glycine receptor. Described as §2. The format is functional, cell-based.
Assay [7] addresses T1, G-protein coupled receptor 55. Kind of assay: Antagonist activity at recombinant human GPR55 expressed in CHO cells assessed as inhibition of lysophosphatidylinositol-induced beta-arrestin recruitment preincubated for 60 mins followed by lysophosphatidylinositol addition for 90 mins measured for 1 sec by luminescence assay. In kind it is functional, cell-based.
Assay [8] addresses Cannabinoid receptor 2 (Homo sapiens, UniProt P34972). The assay is described as follows: Displacement of [3H]CP55940 from recombinant human CB2 receptor expressed in CHO cell membranes after 2 hrs by liquid scintillation counting method. As to conditions: for inhibition: concentration not given here.

T1 sequence (Q9Y2T6 whole entry): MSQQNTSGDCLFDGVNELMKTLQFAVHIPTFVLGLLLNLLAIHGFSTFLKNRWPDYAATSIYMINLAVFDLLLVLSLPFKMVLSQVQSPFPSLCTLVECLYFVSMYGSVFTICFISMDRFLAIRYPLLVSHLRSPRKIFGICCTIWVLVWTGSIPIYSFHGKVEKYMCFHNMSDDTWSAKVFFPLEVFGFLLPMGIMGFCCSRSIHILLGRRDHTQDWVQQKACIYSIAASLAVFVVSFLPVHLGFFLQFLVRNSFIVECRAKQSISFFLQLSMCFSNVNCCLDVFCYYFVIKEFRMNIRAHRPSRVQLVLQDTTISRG
Cannabinoid receptor 1, sequence (P21554 whole entry): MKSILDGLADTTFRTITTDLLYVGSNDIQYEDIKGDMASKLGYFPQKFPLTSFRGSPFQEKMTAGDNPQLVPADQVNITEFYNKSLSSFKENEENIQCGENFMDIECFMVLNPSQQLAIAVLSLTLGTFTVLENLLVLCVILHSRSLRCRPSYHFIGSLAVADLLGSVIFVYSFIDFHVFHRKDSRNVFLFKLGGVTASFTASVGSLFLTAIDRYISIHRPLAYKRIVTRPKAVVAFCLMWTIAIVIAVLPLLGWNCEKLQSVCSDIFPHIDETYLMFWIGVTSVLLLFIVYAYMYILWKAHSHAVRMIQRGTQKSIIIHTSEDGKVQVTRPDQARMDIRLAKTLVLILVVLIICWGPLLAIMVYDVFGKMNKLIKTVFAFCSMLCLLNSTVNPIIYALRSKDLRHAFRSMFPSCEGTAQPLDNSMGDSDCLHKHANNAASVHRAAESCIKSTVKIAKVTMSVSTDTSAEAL
Cannabinoid receptor 2, sequence (P34972 whole entry): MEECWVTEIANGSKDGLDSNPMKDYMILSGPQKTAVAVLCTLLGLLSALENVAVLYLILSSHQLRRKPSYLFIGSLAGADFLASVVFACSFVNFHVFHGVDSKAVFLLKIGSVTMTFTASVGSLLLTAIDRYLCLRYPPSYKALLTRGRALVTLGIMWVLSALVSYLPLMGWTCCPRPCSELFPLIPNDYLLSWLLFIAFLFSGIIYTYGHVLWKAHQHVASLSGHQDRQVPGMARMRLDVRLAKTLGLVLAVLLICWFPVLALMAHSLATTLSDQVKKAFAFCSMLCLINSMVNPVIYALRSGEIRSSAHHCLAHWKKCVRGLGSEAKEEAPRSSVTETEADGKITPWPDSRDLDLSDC

For orientation: EC50 means the concentration giving half of the maximal effect. One may read the Ki as a measure of affinity in units of concentration, obtained from inhibition or displacement. The inhibition is the drop in the measured response relative to a control, in per cent. The IC50 is the midpoint of a concentration-inhibition curve. For `O=C1/C(=C/c2cccc(OCCCCCOc3ccc(Cl)cc3)c2)N=C2SCCCN12`, the %max in assay [1] is -21%; in assay [5] it was -38%. Further, the concentration giving a half-maximal response (EC50) in assay [1] and in assay [6] was greater than 10 µM in each case. Moreover, the Ki in assay [2] and in assay [8] was greater than 10 µM in each case. Besides, the inhibition in assay [2] was 8%. Moreover, the Imax came out at 123% in assay [3] and 124% in assay [7]. Further, the values for the IC50 in assay [4] and in assay [7] were 1.14 µM and 3.77 µM, respectively.

For the compound `O=C1/C(=C/c2cccc(OCCCCCCCCOc3ccc(Cl)cc3)c2)N=C2SCCCN12`, the %max in assay [1] is -18%; in assay [5] it was -25%. Besides, the half-maximal effective concentration (EC50) in assay [1] and in assay [6] was greater than 10 µM throughout. In addition, the Ki in assay [2] and in assay [8] was greater than 10 µM in each case. Also, the inhibition in assay [2] was -9%; in assay [8], -3%. Also, the Imax amounted to 124% in assay [3] and 43% in assay [7]. Also, the half-maximal inhibitory concentration (IC50) is 1.15 µM in assay [4] and greater than 10 µM in assay [7].

Turning to `O=C1NC(SCc2ccc(F)cc2)=N/C1=C\c1cccc(OCc2ccc(Cl)cc2)c1`, the %max in assay [1] is -21%; in assay [5], 23%. For the same compound, the EC50 in assay [1] and in assay [6] was greater than 10 µM throughout. Also, the Ki in assay [2] and in assay [8] was greater than 10 µM in each case. Also, the figures for the inhibition in assay [2] and in assay [8] were 42% and 19%, respectively. In addition, the figures for the Imax in assay [3] and in assay [7] were 27% and 44%, respectively. The concentration for half-maximal inhibition (IC50) in assay [4] and in assay [7] was greater than 10 µM throughout.

Consider `O=C1/C(=C/c2cccc(OCCCCCCOc3ccccc3Cl)c2)N=C2SCCCN12`, for which the %max in assay [1] was 0%; in assay [5], 10%. For the same compound, the EC50 in assay [1] and in assay [6] was greater than 10 µM throughout. Moreover, the inhibition constant (Ki) in assay [2] and in assay [8] was greater than 10 µM each time. The inhibition in assay [2] worked out at 19%; in assay [8], 29%. Further, the Imax in assay [3] came to 41%; in assay [7], 79%. Further, the IC50 in assay [4] was greater than 10 µM; in assay [7] it was 3.41 µM.

Consider `CSC1=N/C(=C\c2cccc(OCc3ccc(Cl)cc3)c2)C(=O)N1C`, for which the %max in assay [1] and in assay [5] was -2% throughout. The EC50 in assay [1] and in assay [6] was greater than 10 µM in each case. Moreover, the Ki in assay [2] and in assay [8] was greater than 10 µM throughout. The results for the inhibition in assay [2] and in assay [8] were 19% and 24%, respectively. The Imax was 23% in assay [3] and 35% in assay [7]. Further, the IC50 in assay [4] and in assay [7] was greater than 10 µM each time.

For `Cc1ccc(COc2cccc(/C=C3\N=C4SCCCN4C3=O)c2)cc1`, the figures for the %max in assay [1] and in assay [5] were -31% and 2%, respectively. Besides, the EC50 in assay [1] and in assay [6] was greater than 10 µM each time. Further, the Ki in assay [2] and in assay [8] was greater than 10 µM each time. The results for the inhibition in assay [2] and in assay [8] were 22% and 25%, respectively. In addition, the Imax in assay [3] amounted to 61%; in assay [7], 134%. Besides, the IC50 was found to be 3.59 µM in assay [4] and 9.45 µM in assay [7].

`O=C1N=C2SCCN2/C1=C\c1cccc(OCc2ccc(Cl)cc2)c1`: the figures for the %max in assay [1] and in assay [5] were 2% and 13%, respectively. Also, the EC50 in assay [1] and in assay [6] was greater than 10 µM in each case. Also, the Imax came to 60% in assay [2], 25% in assay [3] and 19% in assay [7]. Also, the Ki is 1.67 µM in assay [2] and greater than 10 µM in assay [8]. The IC50 in assay [4] and in assay [7] was greater than 10 µM in each case. Besides, in assay [8], the inhibition stood at 41%.

Regarding `Cc1ccc(OCCCCCCOc2cccc(/C=C3\N=C4SCCCN4C3=O)c2)cc1`, the figures for the %max in assay [1] and in assay [5] were 35% and -12%, respectively. In addition, the concentration for a half-maximal effect (EC50) in assay [1] and in assay [6] was greater than 10 µM in each case. The Ki in assay [2] and in assay [8] was greater than 10 µM each time. Moreover, the inhibition in assay [2] was determined as 9%; in assay [8] it was 12%. Besides, the Imax in assay [3] worked out at 81%; in assay [7], 86%. For the same compound, the half-inhibitory concentration (IC50) in assay [4] was found to be 0.238 µM; in assay [7], 2.91 µM.

In the case of `O=C1/C(=C/c2cccc(OCCOc3ccc(Cl)cc3)c2)N=C2SCCCN12`, the %max in assay [1] was -20%; in assay [5] it was -10%. Besides, the 50% effective concentration (EC50) in assay [1] and in assay [6] was greater than 10 µM in each case. Further, the Ki in assay [2] and in assay [8] was greater than 10 µM in each case. The inhibition was 21% in assay [2] and -9% in assay [8]. Besides, the values for the Imax in assay [3] and in assay [7] were 123% and 99%, respectively. Moreover, the values for the IC50 in assay [4] and in assay [7] were 5 µM and 10.1 µM, respectively.

On to `O=C1/C(=C/c2cccc(OCCCOc3ccc(Cl)cc3)c2)N=C2SCCCN12`, for which the %max in assay [1] is -36%; in assay [5], -16%. The EC50 in assay [1] and in assay [6] was greater than 10 µM throughout. For the same compound, the Ki in assay [2] and in assay [8] was greater than 10 µM in each case. Moreover, the inhibition in assay [2] was 18%; in assay [8] it was -2%. In addition, the Imax in assay [3] was 113%; in assay [7], 38%. Further, the concentration for half-maximal inhibition (IC50) in assay [4] is 3.25 µM; in assay [7], greater than 10 µM.

For the compound `O=C1NC(SCCc2ccccc2)=N/C1=C\c1cccc(OCc2ccc(Cl)cc2)c1`, the %max in assay [1] came out at 21%; in assay [5] it was 2%. For the same compound, the EC50 in assay [1] and in assay [6] was greater than 10 µM in each case. The Ki in assay [2] and in assay [8] was greater than 10 µM throughout. Further, the inhibition in assay [2] came out at 18%; in assay [8] it was 33%. Also, the values for the Imax in assay [3] and in assay [7] were 103% and 27%, respectively. The half-maximal inhibitory concentration (IC50) was 4.78 µM in assay [4] and greater than 10 µM in assay [7].

In the case of `O=C1/C(=C/c2cccc(OCc3ccc(Cl)cc3)c2)N=C2SCCN12`, the %max is -3% in assay [1] and 1% in assay [5]. Also, the EC50 in assay [1] and in assay [6] was greater than 10 µM throughout. In addition, the inhibition constant (Ki) in assay [2] and in assay [8] was greater than 10 µM each time. Besides, the values for the inhibition in assay [2] and in assay [8] were 18% and 28%, respectively. The Imax in assay [3] was 40%; in assay [7], 42%. For the same compound, the half-inhibitory concentration (IC50) in assay [4] and in assay [7] was greater than 10 µM throughout.

With `CCc1ccc(OCCCCCCOc2cccc(/C=C3\N=C4SCCCN4C3=O)c2)cc1`, the results for the %max in assay [1] and in assay [5] were 47% and 0%, respectively. Further, the concentration for a half-maximal effect (EC50) in assay [1] and in assay [6] was greater than 10 µM each time. The Ki in assay [2] and in assay [8] was greater than 10 µM throughout. Besides, the inhibition in assay [2] and in assay [8] was 13% each time. Also, the Imax in assay [3] stood at 99%; in assay [7], 37%. Further, the IC50 in assay [4] is 25 µM; in assay [7] it was greater than 10 µM.

For the compound `CC(C)c1ccc(OCCCCCCOc2cccc(/C=C3\N=C4SCCCN4C3=O)c2)cc1`, the figures for the %max in assay [1] and in assay [5] were 45% and 15%, respectively. Besides, the EC50 in assay [1] and in assay [6] was greater than 10 µM each time. In addition, the inhibition constant (Ki) in assay [2] and in assay [8] was greater than 10 µM throughout. For the same compound, the inhibition in assay [2] came to 33%; in assay [8], 46%. The Imax in assay [3] was found to be 24%; in assay [7], 32%. Besides, the concentration for half-maximal inhibition (IC50) in assay [4] and in assay [7] was greater than 10 µM each time.

For the compound `Cc1ccc(CSC2=N/C(=C\c3cccc(OCc4ccc(Cl)cc4)c3)C(=O)N2C)cc1`, the %max in assay [1] was found to be 20%; in assay [5], 7%. Also, the EC50 in assay [1] and in assay [6] was greater than 10 µM each time. Moreover, the Ki in assay [2] and in assay [8] was greater than 10 µM each time. The figures for the inhibition in assay [2] and in assay [8] were 15% and 25%, respectively. Besides, the Imax in assay [3] turned out to be 17%; in assay [7], 33%. The IC50 in assay [4] and in assay [7] was greater than 10 µM throughout.

As to `O=C1/C(=C/c2cccc(OCCCCCCCOc3ccc(Cl)cc3)c2)N=C2SCCCN12`, the %max came to 34% in assay [1] and 3% in assay [5]. Besides, the EC50 in assay [1] and in assay [6] was greater than 10 µM in each case. The inhibition constant Ki in assay [2] and in assay [8] was greater than 10 µM throughout. The inhibition was 46% in assay [2] and 15% in assay [8]. For the same compound, the values for the Imax in assay [3] and in assay [7] were 97% and 16%, respectively. Besides, the IC50 in assay [4] was 1.71 µM; in assay [7] it was greater than 10 µM.

For the compound `O=C1/C(=C/c2cccc(OCCCCCCOc3cccc(Cl)c3)c2)N=C2SCCCN12`, the %max in assay [1] came out at 28%; in assay [5], 0%. In addition, the EC50 in assay [1] and in assay [6] was greater than 10 µM in each case. The inhibition constant Ki in assay [2] and in assay [8] was greater than 10 µM in each case. In addition, the inhibition stood at 33% in assay [2] and 46% in assay [8]. Moreover, the Imax in assay [3] is 55%; in assay [7], 37%. In addition, the 50% inhibitory concentration (IC50) in assay [7] was greater than 10 µM.

For the origin of these results see ChEMBL document CHEMBL4152303, “Structure-activity relationships of imidazothiazinones and analogs as antagonists of the cannabinoid-activated orphan G protein-coupled receptor GPR18” (Eur J Med Chem, 2018).
